# Data as given in US5783558A, “Parathormone fragments, their preparation and medicaments containing these” (Boehringer Mannheim GmbH, priority 1992, dated 1998).
# Key:
# UMR 106 cells = experiment: DNA synthesis capacity of PTH(3-X) fragments on UMR 106 cells ([3H]-thymidine incorporation); assay type: cell-based
# Description: DNA synthesis capacity on PTH-(3-X) fragments
# An increased DNA synthesis capacity on UMR 106 cells was also observed with fragments, the N-terminus of which was shortened by two amino acids. An action maximum was again present when the chain length lay between 34 and 36 amino acids (cf. Tab. 6). This finding is surprising since it is known that a deletion of the amino acids +1 or +1 and +2 leads to the loss of the cAMP induction, combined with the loss of the calcium-mobilising properties of the PTH. An anabolic (mitogenic) activity of N-terminal shortened PTH fragments has hitherto not been described.
# rats = experiment: Ca retention (Ca balance) in growing rats; assay type: in vivo, rat; parameters: Ca retention (mg per day) average value: dose or concentration left out as unconfirmed; conditions: for Ca retention (mg per day) average value / Ca retention % increase: male CD rats, daily subcutaneous, 10 days; for Ca retention (mg per day) average value: equimolar doses, balance measured during last 3 days; for Ca retention in words: rats, compared with hPTH(1-n), n=34, 37, 38; for Ca retention % increase: versus control
# Description: Determination of the action of various PTH fragments on the Ca retention in the case of rats.
# The measurement of the Ca balance in growing rats is a suitable model to test in vivo the effectiveness of a systemically administered substance on the bone metabolism. In the case of the Ca balance, the Ca flows in and out of the body are measured and the Ca retention (balance) calculated therefrom. It is thereby taken into account that the bones store about 99% of the body calcium, whereas the plasma calcium level remains constant. The amount of calcium retained in the body from the nutrition can, therefore, be regarded as proportional to the growth in the bone mass.
# As experimental animals for the investigations, there served male CD rats which, at the beginning of the experiment, were 10 weeks old and weighed 250-300 g. The experimental animals were kept individually in commercially-available metabolic cages. An automatic separation of faeces and urine took place in the metabolic cages. Both fractions were collected quantitatively in collection containers and could be analyzed separately from one another.
# As feed there served a standard diet for rats of meal-like consistency which was pasted with aqua dist. in the ratio of 1:1. The daily provided amount of feed was so adapted to the feed requirement of the animals in the sense of a so-called "group feedings" that they were completely eaten by all animals. The daily food ration amounted to 20 g (wet feed). Aqua dist. was offerred to the animals ad libitum.
# All test substances were injected daily subcutaneously in equimolar doses (corresponding to […] hPTH(1-34)×kg^-1 ×day^-1), over 10 days. Of this, the first 7 days served for the adaptation of the animals, whereas the measurement of the Ca balance took place during the last 3 days.
# The Ca intake was calculated via the amount of feed taken up and the experimentally determined Ca content of the feed. For this purpose, from the feed batch of each day, an aliquot was dried to constant weight and the water content determined from the comparison of wet and dry weight. Subsequently, 2×500 mg of the dried feed was digested with a laboratory microwave apparatus in conc. acids as follows: To 500 mg of dried feed were successively pipetted 3 ml HNO3 (conc.), 1 ml HCl (conc.) and 1 ml H2 O2 (30%). After the subsidence of the spontaneous oxidation reaction (foaming up), there followed the digestion pressure-controlled in closed digestion containers of Teflon PFA. The pressure/time steps were thereby successively following passed through: 40 psi (276 kpa), 5 min; 80 psi (552 kPa), 5 min; 150 psi ([…]); 10 min. To the cooled digest were then again added 2 ml H 2 O2 (30%) in order to test the completeness of the digestion reaction (no more foaming up).The digest was made up with a 1% lanthanum nitrate solution (v/v in 0.3% HCl) ad 100 ml. For the measurement of the Ca content on a flame atom absorption spectrometer (AAS), the samples were again dilute 1:100 with 1% lanthanum nitrate solution. The Ca intake was then calculated from the taken-up amount of feed and the measured water and Ca content.
# The Ca loss via the faeces was then determined analogously to the Ca intake: Determination of the water content, acidic digestion in the microwave apparatus under the same conditions and subsequent measurement of the Ca content on the AAS.
# In the collection container for the urine was placed 2 ml 10% HCl in order to prevent a precipitation of urate. After the end of the experiment, the urine volume was determined by weighing and subsequently an aliquot thereof diluted with 1% lanthanum nitrate solution (v/v in 0.3% HCl) in the ratio of 1:100. The determination of the Ca content of the samples took place on the AAS.
# sterna organ cultures [1] = experiment: Mitogeneity on sterna organ cultures; assay type: cell-based; conditions: n=4
# Description: Mitogeneity on sterna organ cultures
# The mitogeneity of the new fragments was tested in organ cultures from sterna and it was ascertained that this activity was more strongly marked than in the case of the known fragments hPTH(1-34) and hPTH(1-38)(cf. Tab. 2).
# ROS 17/2.8 cells = experiment: DNA synthesis capacity on ROS 17/2.8 cells ([3H]-thymidine incorporation); assay type: cell-based; conditions: for DNA synthesis E/C / [^3 H]-thymidine incorporation (cpm): hPTH(1-X) 100 nM, ROS/2.8 cells
# Description: DNA synthesis capacity on ROS 17/2.8 cells
# The DNA synthesis capacity was measured on ROS 17/2.8 cells. […] Tab. 3: DNA synthesis hPTH(1-X), 100 nM, ROS/2.8 cells
# sterna organ cultures [2] = experiment: cAMP stimulation on sterna organ cultures; assay type: cell-based; conditions: for pMol cAMP: 100 nm inductor, n=4; for Induction of cAMP formation in words: compared with PTH(1-34)
# Description: (§1) In organ cultures from sterna, as well as on membrane fractions from pigs' kidneys was measured the induction of the cAMP formation by various PTH peptides. […] This is of importance since the catabolic, i.e. calcium-mobilising properties of PTH are, as is known, involved with an increase of the cAMP (Schluter et al. (1989), J. Biol. Chem. 264, 19:11087-11092; Lowik et al., (1988), Calcif Tissue Int. 43:7-18). These findings are plausible and, therefore, support the above-mentioned findings which show an increase of the anabolic properties of the peptide in the case of a chain length between 35 and 36 amino acids.
# [3] = system: membrane fractions from pigs' kidneys; experiment: cAMP stimulation on porcine kidney membrane; assay type: biochemical, pig; conditions: for Induction of cAMP formation in words: membrane fractions from pigs' kidneys, compared with PTH(1-34); for pMol cAMP/mg protein ± SEM: porcine kidney membrane, n=3
# Description: as §1
Substance,DNA synthesis E/C (UMR 106 cells; PTH(3-X) 100 nM),[^3 H]-thymidine incorporation (cpm) (UMR 106 cells; PTH(3-X) 100 nM),DNA synthesis E/C (UMR 106 cells; PTH(3-X) 300 nM),[^3 H]-thymidine incorporation (UMR 106 cells; PTH(3-X) 300 nM),Ca retention (mg per day) average value (rats),Ca retention in words (rats),Ca retention % increase (rats),Mitogeneity E/C +/- SEM (sterna organ cultures [1]),"DNA synthesis capacity in words (ROS 17/2.8 cells; ROS 17/2.8 cells, compared with other fragments)",DNA synthesis E/C (ROS 17/2.8 cells),[^3 H]-thymidine incorporation (cpm) (ROS 17/2.8 cells),pMol cAMP (sterna organ cultures [2]),Induction of cAMP formation in words (sterna organ cultures [2]),Induction of cAMP formation in words [3],pMol cAMP/mg protein ± SEM [3]
"PTH (3-34): PTH fragment, N-terminus shortened by two amino acids, positions 3-34 (SEIQLMHNLGKHLNSMERVEWLRKKLQDVHNF; Parathyroid hormone; UniProt P01270 34-65, looked up, fragment)",1.9 ± 0.12,"1,748 ± 150 cpm",3.6 ± 0.31,"3,516 ± 297",–,–,–,–,–,–,–,–,–,–,–
"PTH (3-37): PTH fragment, N-terminus shortened by two amino acids, positions 3-37 (SEIQLMHNLGKHLNSMERVEWLRKKLQDVHNFVAL; Parathyroid hormone; UniProt P01270 34-68, looked up, fragment)",2.3 ± 0.06,"2,161 ± 74 cpm",4.1 ± 0.28,"3,962 ± 268",–,–,–,–,–,–,–,–,–,–,–
"PTH (3-38): PTH fragment, N-terminus shortened by two amino acids, positions 3-38 (SEIQLMHNLGKHLNSMERVEWLRKKLQDVHNFVALG; Parathyroid hormone; UniProt P01270 34-69, looked up, fragment)",2.1 ± 0.13,"1,905 ± 159 cpm",3.8 ± 0.43,"3,701 ± 414",–,–,–,–,–,–,–,–,–,–,–
Ser-Val-Ser-Glu-Ile-Gln-Leu-Met-His-Asn-Leu-Gly-Lys-His-Leu-Asn-Ser-Met-Glu-Arg-Val-Glu-Trp-Leu-Arg-Lys-Lys-Leu-Gln-Asp-Val-His-Asn-Phe-Val (SVSEIQLMHNLGKHLNSMERVEWLRKKLQDVHNFV) [hPTH(1-35)],–,–,–,–,108.6 mg per day,higher Ca retention,119%,3.13 +/- 0.57,more strongly increased,4.1 ± 0.43,"2,686 ± 282 cpm",18.2 pMol,decreased,decreased,82.4 ± 0.4 pMol cAMP/mg protein
Ser-Val-Ser-Glu-Ile-Gln-Leu-Met-His-Asn-Leu-Gly-Lys-His-Leu-Asn-Ser-Met-Glu-Arg-Val-Glu-Trp-Leu-Arg-Lys-Lys-Leu-Gln-Asp-Val-His-Asn-Phe-Val-Ala (SVSEIQLMHNLGKHLNSMERVEWLRKKLQDVHNFVA) [hPTH(1-36)],–,–,–,–,110.5 mg per day,higher Ca retention,123%,3.37 +/- 0.58,–,3.2 ± 0.37,"2,136 ± 246 cpm",17.6 pMol,decreased,decreased,44.6 ± 1.8 pMol cAMP/mg protein
"hPTH(1-37): known human parathyroid hormone fragment, amino acids 1-37 (WO 91/06564) (SVSEIQLMHNLGKHLNSMERVEWLRKKLQDVHNFVAL; Parathyroid hormone; UniProt P01270 32-68, looked up, fragment) [reference compound]",–,–,–,–,96.0 mg per day,–,94%,–,–,3.1 ± 0.38,"2,021 ± 251 cpm",–,–,–,–
"hPTH(1-38): known human parathyroid hormone fragment, amino acids 1-38, state of the art (SVSEIQLMHNLGKHLNSMERVEWLRKKLQDVHNFVALG; Parathyroid hormone; UniProt P01270 32-69, looked up, fragment) [reference compound]",–,–,–,–,91.8 mg per day,–,85%,2.96 +/- 0.30,–,–,–,–,–,–,–
